Assay results taken from patent publication US10793568B2, “Hormone receptor modulators for treating metabolic conditions and disorders” (ARDELYX, INC., priority 2016, dated 2020).
Read-outs that look alike come from different tables or passages of the source.

Experiments:
[1] = biological target: human Farnesoid X receptor ligand-binding domain/Gal4 DNA binding domain chimera (Homo sapiens (Human), UniProt Q96RI1); experiment: Cell-based assay of FXR activation (FXR-UAS-bla HEK 293T beta-lactamase reporter); conditions: cellular FXR beta-lactamase reporter assay; for Emax: HEK-293T, extent of activation relative to GW4064, read-out: % Efficacy; for EC50: FXR-UAS-bla HEK 293T cells, 16 h, pEC50 = -log EC50
How it was run: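 HEK 293T cells stably expressing a Gal4-fused human FXR LBD and a UAS-driven beta-lactamase reporter were incubated with serially diluted compounds for 16 h at 37 °C in phenol red-free DMEM with 2% charcoal-stripped FBS. CCF4 FRET read-out: excitation 409 nm, emission 447 nm. pEC50 comes from a 3-parameter logistic fit, and efficacy is given as % of GW4064.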

[2] = biological target: ligand binding domain of human FXR (Homo sapiens (Human), UniProt Q96RI1); experiment: FXR ligand binding assay (LanthaScreen TR-FRET, SRC2-2 peptide recruitment); conditions: for Emax: read-out: % Efficacy
[3] = -log EC50, concentration required to produce 50% activation
[4] = extent of activation relative to GW4064

Sequence of ligand binding domain of human FXR (Q96RI1 262-486): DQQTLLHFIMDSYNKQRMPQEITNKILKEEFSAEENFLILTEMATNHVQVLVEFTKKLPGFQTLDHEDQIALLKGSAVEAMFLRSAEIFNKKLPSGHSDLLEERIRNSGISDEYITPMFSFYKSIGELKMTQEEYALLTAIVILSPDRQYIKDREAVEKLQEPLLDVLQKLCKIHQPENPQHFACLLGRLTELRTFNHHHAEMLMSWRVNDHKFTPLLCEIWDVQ
Sequence of human Farnesoid X receptor ligand-binding domain/Gal4 DNA binding domain chimera (Q96RI1 262-486, change not shown): as the sequence (Q96RI1 262-486) above
Sequence of human Farnesoid X receptor ligand-binding domain/Gal4 DNA binding domain chimera (P04386 1-147 partner): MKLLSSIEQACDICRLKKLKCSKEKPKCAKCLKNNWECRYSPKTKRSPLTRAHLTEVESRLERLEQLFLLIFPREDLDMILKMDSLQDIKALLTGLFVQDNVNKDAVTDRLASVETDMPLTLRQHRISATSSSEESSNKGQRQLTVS

SMILES	Emax [1] [%]	EC50 [1] [nM]	pEC50 [2, 3]	Emax [2, 4] [%]	Emax [2] [%]	EC50 [2, 3] [nM]
Cc1cc(C(=O)NCCP(=O)(OCOC(=O)C(C)(C)C)OCOC(=O)C(C)(C)C)ccc1N1C[C@@H]2C[C@H]1C[C@H]2OCc1c(-c2c(Cl)cccc2Cl)noc1C1CC1 [Compound I-174, ({[2-({4-[(1S,4S,5R)-5-{[5-cyclopropyl-3-(2,6-dichlorophenyl)-1,2-oxazol-4-yl]methoxy}-2-azabicyclo[2.2.1]heptan-2-yl]-3-methylphenyl}formamido)ethyl]({[(2,2-dimethylpropanoyl)oxy]methoxy})phosphoryl}oxy)methyl 2,2-dimethylpropanoate]	152	251	8.8	161	–	–
O=P(O)(O)CCc1ccc(N2C[C@@H]3C[C@H]2C[C@H]3OCc2c(-c3c(Cl)cccc3Cl)noc2C2CC2)cc1 [Compound I-175, (2-{4-[(1S,4S,5R)-5-{[5-cyclopropyl-3-(2,6-dichlorophenyl)-1,2-oxazol-4-yl]methoxy}-2-azabicyclo[2.2.1]heptan-2-yl]phenyl}ethyl)phosphonic Acid]	101	631	8.2	–	120	–
O=P(O)(O)Cc1ccc(N2C[C@@H]3C[C@H]2C[C@H]3OCc2c(-c3c(Cl)cccc3Cl)noc2C2CC2)cc1 [Compound I-176, ({4-[(1S,4S,5R)-5-{[5-cyclopropyl-3-(2,6-dichlorophenyl)-1,2-oxazol-4-yl]methoxy}-2-azabicyclo[2.2.1]heptan-2-yl]phenyl}methyl)phosphonic Acid]	92	631	7.5	–	120	–
COC(=O)c1ccc(N2C[C@@H]3C[C@H]2C[C@H]3OCc2c(-c3c(Cl)cccc3Cl)noc2C2CC2)cc1F [Compound I-177, methyl 4-[(1S,4S,5R)-5-{[5-cyclopropyl-3-(2,6-dichlorophenyl)-1,2-oxazol-4-yl]methoxy}-2-azabicyclo[2.2.1]heptan-2-yl]-2-fluorobenzoate]	109	12.6	7.4	130	–	–
O=C(O)c1nnc(N2C[C@@H]3C[C@H]2C[C@H]3OCc2c(-c3c(Cl)cccc3Cl)noc2C2CC2)s1 [Compound I-178, 5-[(1S,4S,5R)-5-{[5-cyclopropyl-3-(2,6-dichlorophenyl)-1,2-oxazol-4-yl]methoxy}-2-azabicyclo[2.2.1]heptan-2-yl]-1,3,4-thiadiazole-2-carboxylic Acid]	70	158	6.9	86	–	–
Cn1nc(C(=O)O)cc1N1C[C@@H]2C[C@H]1C[C@H]2OCc1c(-c2c(Cl)cccc2Cl)noc1C1CC1 [Compound I-180, 5-[(1S,4S,5R)-5-[[5-cyclopropyl-3-(2,6-dichlorophenyl)-1,2-oxazol-4-yl]methoxy]-2-azabicyclo[2.2.1]heptan-2-yl]-1-methyl-1H-pyrazole-3-carboxylic acid]	–	< 316	>6.5	–	–	–
O=C(NS(=O)(=O)C1CCCCC1)c1ccc(N2C[C@@H]3C[C@H]2C[C@H]3OCc2c(-c3c(Cl)cccc3Cl)noc2C2CC2)cc1 [Compound I-181, N-(cyclohexanesulfonyl)-4-[(1S,4S,5R)-5-{[5-cyclopropyl-3-(2,6-dichlorophenyl)-1,2-oxazol-4-yl]methoxy}-2-azabicyclo[2.2.1]heptan-2-yl]benzamide]	110	0.0631	8.8	–	166	–
O=C(NS(=O)(=O)C1CCOCC1)c1ccc(N2C[C@@H]3C[C@H]2C[C@H]3OCc2c(-c3c(Cl)cccc3Cl)noc2C2CC2)cc1 [Compound I-182, 4-[(1S,4S,5R)-5-{[5-cyclopropyl-3-(2,6-dichlorophenyl)-1,2-oxazol-4-yl]methoxy}-2-azabicyclo[2.2.1]heptan-2-yl]-N-(oxane-4-sulfonyl)benzamide]	106	0.158	–	156	–	1.26
O=C(NS(=O)(=O)C1CCC1)c1ccc(N2C[C@@H]3C[C@H]2C[C@H]3OCc2c(-c3c(Cl)cccc3Cl)noc2C2CC2)cc1 [Compound I-183, N-(cyclobutylsulfonyl)-4-((1S,4S,5R)-5-((5-cyclopropyl-3-(2,6-dichlorophenyl)isoxazol-4-yl)methoxy)-2-azabicyclo[2.2.1]heptan-2-yl)benzamide]	119	0.1	8.6	163	–	–
O=C(NS(=O)(=O)C1COC1)c1ccc(N2C[C@@H]3C[C@H]2C[C@H]3OCc2c(-c3c(Cl)cccc3Cl)noc2C2CC2)cc1 [Compound I-184, 4-((1S,4S,5R)-5-((5-cyclopropyl-3-(2,6-dichlorophenyl)isoxazol-4-yl)methoxy)-2-azabicyclo[2.2.1]heptan-2-yl)-N-(oxetan-3-ylsulfonyl)benzamide]	108	3.16	7.7	161	–	–
O=C(NS(=O)(=O)C1CCOC1)c1ccc(N2C[C@@H]3C[C@H]2C[C@H]3OCc2c(-c3c(Cl)cccc3Cl)noc2C2CC2)cc1 (stereo partly drawn) [Compound I-185, 4-((1S,4S,5R)-5-((5-cyclopropyl-3-(2,6-dichlorophenyl)isoxazol-4-yl)methoxy)-2-azabicyclo[2.2.1]heptan-2-yl)-N-((tetrahydrofuran-3-yl)sulfonyl)benzamide]	105	0.1	8.9	155	–	–
O=C(NS(=O)(=O)CC1CCOC1)c1ccc(N2C[C@@H]3C[C@H]2C[C@H]3OCc2c(-c3c(Cl)cccc3Cl)noc2C2CC2)cc1 (stereo partly drawn) [Compound I-186, 4-((1S,4S,5R)-5-((5-cyclopropyl-3-(2,6-dichlorophenyl)isoxazol-4-yl)methoxy)-2-azabicyclo[2.2.1]heptan-2-yl)-N-(((tetrahydrofuran-3-yl)methyl)sulfonyl)benzamide]	107	0.158	8.9	134	–	–
CN1CCC(S(=O)(=O)NC(=O)c2ccc(N3C[C@@H]4C[C@H]3C[C@H]4OCc3c(-c4c(Cl)cccc4Cl)noc3C3CC3)cc2)CC1 [Compound I-187, 4-((1S,4S,5R)-5-((5-cyclopropyl-3-(2,6-dichlorophenyl)isoxazol-4-yl)methoxy)-2-azabicyclo[2.2.1]heptan-2-yl)-N-((1-methylpiperidin-4-yl)sulfonyl)benzamide]	104	10	9.2	156	–	–
O=C(NS(=O)(=O)c1cn[nH]c1)c1ccc(N2C[C@@H]3C[C@H]2C[C@H]3OCc2c(-c3c(Cl)cccc3Cl)noc2C2CC2)cc1 [Compound I-188, N-((1H-pyrazol-4-yl)sulfonyl)-4-((1S,4S,5R)-5-((5-cyclopropyl-3-(2,6-dichlorophenyl)isoxazol-4-yl)methoxy)-2-azabicyclo[2.2.1]heptan-2-yl)benzamide]	100	6.31	–	150	–	–
CC(C)CCS(=O)(=O)NC(=O)c1ccc(N2C[C@@H]3C[C@H]2C[C@H]3OCc2c(-c3c(Cl)cccc3Cl)noc2C2CC2)c(F)c1 [Compound I-190, 4-((1S,4S,5R)-5-((5-cyclopropyl-3-(2,6-dichlorophenyl)isoxazol-4-yl)methoxy)-2-azabicyclo[2.2.1]heptan-2-yl)-3-fluoro-N-(isopentylsulfonyl)benzamide]	113	0.0631	8.4	163	–	–
CCCCCS(=O)(=O)NC(=O)c1ccc(N2C[C@@H]3C[C@H]2C[C@H]3OCc2c(-c3c(Cl)cccc3Cl)noc2C2CC2)c(F)c1 [Compound I-191, 4-((1S,4S,5R)-5-((5-cyclopropyl-3-(2,6-dichlorophenyl)isoxazol-4-yl)methoxy)-2-azabicyclo[2.2.1]heptan-2-yl)-3-fluoro-N-(pentylsulfonyl)benzamide]	111	0.0398	8.4	163	–	–
CCCCCCCCS(=O)(=O)NC(=O)c1ccc(N2C[C@@H]3C[C@H]2C[C@H]3OCc2c(-c3c(Cl)cccc3Cl)noc2C2CC2)c(F)c1 [Compound I-192, 4-((1S,4S,5R)-5-((5-cyclopropyl-3-(2,6-dichlorophenyl)isoxazol-4-yl)methoxy)-2-azabicyclo[2.2.1]heptan-2-yl)-3-fluoro-N-(octylsulfonyl)benzamide]	106	0.2	7.9	152	–	–
CCOCCOCCS(=O)(=O)NC(=O)c1ccc(N2C[C@@H]3C[C@H]2C[C@H]3OCc2c(-c3c(Cl)cccc3Cl)noc2C2CC2)c(F)c1 [Compound I-193, 4-((1S,4S,5R)-5-((5-cyclopropyl-3-(2,6-dichlorophenyl)isoxazol-4-yl)methoxy)-2-azabicyclo[2.2.1]heptan-2-yl)-N-((2-(2-ethoxyethoxy)ethyl)sulfonyl)-3-fluorobenzamide]	114	1.58	8.2	138	–	–
CCCS(=O)(=O)NC(=O)c1ccc(N2C[C@@H]3C[C@H]2C[C@H]3OCc2c(-c3c(Cl)cccc3Cl)noc2C2CC2)cc1F [Compound I-194, 4-((1S,4S,5R)-5-((5-cyclopropyl-3-(2,6-dichlorophenyl)isoxazol-4-yl)methoxy)-2-azabicyclo[2.2.1]heptan-2-yl)-2-fluoro-N-(propylsulfonyl)benzamide]	104	0.2	9	141	–	–
